Source: patent US10280179B2, “Spiroquinoxaline derivatives as inhibitors of non-apoptotic regulated cell-death” (Helmholtz Zentrum Munchen—Deutches Forschungszentrum Fur …, priority 2013, dated 2019)
Where two headings read alike, the source gives them in different places.

Experiments:
[1] = tested on: Pfa1 cells; experiment: Inhibition of non-apoptotic cell death after tamoxifen-induced GPx4 knockout in a recombinant cell line (Example B.4); type: cell-based; conditions: Mus musculus, read-out: Pfa1/TAM IC50
How it was run: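 Immortalised murine fibroblasts with tamoxifen-inducible CreERT2 for ablation of both GPx4 copies (Pfa1 cells) received tamoxifen on day 0 together with test compound. Cell survival was measured by AlamarBlue after 72 hours.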

[2] = tested on: SH-SY5Y cells; experiment: TNF-alpha-induced apoptosis, specificity for non-apoptotic cell death (Example B.3); type: cell-based, human; conditions: compound 1 μM, TNF-alpha 10 ng/mL, FIG. 1
Description: SH-SY5Y cells were propagated and seeded in 96-well plates, together with compound N-1, N-2, N-10 of Table 1-N (FIG. 1(a)), compound O/S-6 or O/S-3 of Table 1-O/S (FIG. 1(b)), or compound C-12, C-91, or C-205 of Table 1-C (FIG. 1(c)) (each 1 μM) and TNF-alpha was added (final concentration: 10 ng/mL) to induce apoptosis. The apoptosis and pan-caspase inhibitor z-vad (final concentration: 50 μM) and the necroptosis inhibitor Necrostatin-1 (Nec-1; final concentration: 5 μM) were used for comparison. Control wells were established with vehicle only (DMSO), with and without treatment with TNF-alpha to induce apoptosis. Cells were incubated, and cell survival was detected and quantified. Percentage cell survival after TNF-alpha-induced apoptosis is shown (error bars indicate standard deviation (SD)).
Briefly, SH-SY5Y cells were propagated and seeded in 96-well plates, together with the compound to be tested (1 μM), generally as described in Example B.1, except they were seeded at 1,000 cell/well and instead of BSO, TNF-alpha (Invitrogen) was added to a final concentration of 10 ng/mL to induce apoptosis. The apoptosis and pan-caspase inhibitor Z-VAD-fmk (Enzo Life Science; final concentration 50 μM) and the necroptosis inhibitor Necrostatin-1 (Nec-1; Enzo Life Science; final concentration 5 μM) were used for comparison. Control wells were established with vehicle only (DMSO), with and without treatment with TNF-alpha to induce apoptosis. Cells were incubated, and cell survival was detected and quantified as described in Example B.1.

[3] = Cellular toxicity, same assay as Example B.4 without TAM (Example B.5); type: cell-based; conditions: mouse; Pfa1 cells without TAM; read-out: TC50 (the source's name)
Description: Cellular Toxicity of Compounds of the Invention
An estimate of the toxicity for compounds of the invention was obtained by using the same assay as described in Example B.4, but without the addition of TAM. […] Such TC50 values obtained for certain compounds disclosed herein, together with an approximate therapeutic window (estimated by dividing each TC50 by the corresponding IC50 determined from example B.4) are shown in Table 3.

[4] = tested on: human neuroblastoma cell line SH-SY5Y; experiment: Inhibition of BSO-induced non-apoptotic cell death (Example B.1); type: cell-based; conditions: SH-SY5Y cells, 72 hours
How it was run: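 SH-SY5Y cells exposed to 50 μM BSO together with compound (0.5 pM–100 μM, triplicate) for 72 h at 37°C, 5% CO2. Survival measured by AquaBluer fluorescence (ex 530–560/em 590 nm), normalised to percent surviving cells, and IC50 derived.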

[5] = tested on: mouse hippocampal cell line (Ht22); experiment: Inhibition of glutamate-induced non-apoptotic cell death (Example B.2); type: cell-based; conditions: HT-22, Ht22 cells
How it was run: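 Ht22 cells (2,000/well, DMEM/10% FBS) seeded together with 5 mM glutamate and compound (0.5 pM to 100 μM, triplicate), incubated 72 h at 37 °C/5% CO2. Cell survival then quantified; glutamate alone as negative control, alpha-tocopherol as positive control.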

[6] = 50 μM BSO, read-out: SH-SY5Y/BSO IC50
[7] = BSO 50 μM, cell survival (AquaBluer), read-out: SH-SY5Y/BSO (Example B.1) IC50
[8] = glutamate 5 mM, 72 hours, cell survival, read-out: Ht22/GLU (Example B.2) IC50
[9] = glutamate-induced cell death, read-out: Ht22/GLU

SMILES	IC50 [1]	Percentage cell survival after TNF-alpha-induced apoptosis [2]	CC50 [3]	IC50 [4, 6]	IC50 [4, 7]	IC50 [5, 8]	IC50 [5, 9]
CC1CCC2(CC1)Nc1ccccc1N=C2NCc1ccccc1Cl (stereo not shown) [C-91]	< 200 nM	Non-inhibition of apoptotic cell-death	10000 to 20000 nM	< 20 nM	9.33 nM	~50 nM	< 200 nM
Clc1ccccc1CNC1=Nc2ccccc2NC12CCCCCC2 [C-205]	< 200 nM	Non-inhibition of apoptotic cell-death	20000 to 50000 nM	< 100 nM	46.7 nM	~100 nM	< 500 nM
Clc1ccccc1CNC1=Nc2ccccc2NC12CCNCC2 [N-1]	< 50 nM	Non-inhibition of apoptotic cell-death	10000 to 20000 nM	< 20 nM	6.51 nM	10.3 nM	< 200 nM
Clc1ccc(CNC2=Nc3ccccc3NC23CCOCC3)cc1 [O/S-3]	< 500 nM	Non-inhibition of apoptotic cell-death	20000 to 50000 nM	< 500 nM	~100 nM	~100 nM	< 100 nM
